Measured values published in ChEMBL document CHEMBL4725427, “Synthesis and SAR Studies of 1H-Pyrrolo[2,3-b]pyridine-2-carboxamides as Phosphodiesterase 4B (PDE4B) Inhibitors” (ACS Med Chem Lett, 2020).

Key:
[1] = molecular target: T1, 3',5'-cyclic-AMP phosphodiesterase 4B (Homo sapiens, UniProt Q07343); experiment: Inhibition of recombinant human C-terminal His-tagged N-terminal GST-tagged PDE4B2 expressed in baculovirus infected Sf9 cells at 10 uM by radioligand binding assay relative to control
T1 sequence (Q07343 whole entry): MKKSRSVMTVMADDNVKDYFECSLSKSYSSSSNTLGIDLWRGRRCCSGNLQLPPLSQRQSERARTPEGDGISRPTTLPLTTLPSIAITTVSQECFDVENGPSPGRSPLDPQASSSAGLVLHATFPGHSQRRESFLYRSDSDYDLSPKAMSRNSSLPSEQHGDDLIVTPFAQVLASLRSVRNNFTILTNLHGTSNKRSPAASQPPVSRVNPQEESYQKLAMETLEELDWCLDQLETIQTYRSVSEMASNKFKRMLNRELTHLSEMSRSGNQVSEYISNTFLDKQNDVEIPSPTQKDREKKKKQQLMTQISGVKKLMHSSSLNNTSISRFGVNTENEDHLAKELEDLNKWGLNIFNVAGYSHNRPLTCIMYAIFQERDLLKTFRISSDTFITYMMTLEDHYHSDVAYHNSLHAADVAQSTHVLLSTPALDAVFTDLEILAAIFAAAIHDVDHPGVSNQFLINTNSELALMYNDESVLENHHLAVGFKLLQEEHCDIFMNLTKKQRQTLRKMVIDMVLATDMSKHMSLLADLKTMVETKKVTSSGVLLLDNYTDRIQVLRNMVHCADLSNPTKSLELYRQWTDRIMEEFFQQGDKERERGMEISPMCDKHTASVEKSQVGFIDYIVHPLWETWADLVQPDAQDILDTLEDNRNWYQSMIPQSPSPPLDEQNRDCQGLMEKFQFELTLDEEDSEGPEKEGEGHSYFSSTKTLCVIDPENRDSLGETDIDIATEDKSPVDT

[2] = Metabolic stability in human liver microsomes assessed as intrinsic clearance; format: ADME, Microsome; details: read-out: CLH
[3] = Metabolic stability in mouse liver microsomes assessed as intrinsic clearance; format: ADME, Microsome; details: read-out: CLH
[4] = Protein binding in human plasma assessed as unbound fraction; format: ADME, cell-free
[5] = Protein binding in mouse plasma assessed as unbound fraction; format: ADME, cell-free
[6] = Effect on TNFalpha production in C57BL/6 mouse bone marrow derived Macrophage at 1 to 10 uM incubated for 30 mins by ELISA; details: 0.5 h
[7] = molecular target: T1, 3',5'-cyclic-AMP phosphodiesterase 4B; experiment: Inhibition of recombinant human C-terminal His-tagged N-terminal GST-tagged PDE4B2 expressed in baculovirus infected Sf9 cells by radioligand binding assay; format: cell-based

## Cc1ccc(-c2c(C(=O)NC3CC3)n(C)c3cccnc23)cc1Cl
[1]
  inhibition: 56%

## O=C(NC1CC1)c1cc2cccnc2n1-c1ccc(Cl)c(Cl)c1
[2]
  CLint scaled: 179 mL/min/kg
[3]
  CLint scaled: 157 mL/min/kg
[4]
  fraction unbound: 0.026
[5]
  fraction unbound: 0.006

## O=C(c1cc2cccnc2n1-c1ccnc(F)c1)N1CC(F)C1
[2]
  CLint scaled: < 23.1 mL/min/kg
[3]
  CLint scaled: < 49.5 mL/min/kg
[4]
  fraction unbound: 0.474
[5]
  fraction unbound: 0.393

## O=C(c1cc2cccnc2n1Cc1ccc(Cl)c(Cl)c1)N1CC(F)C1
[1]
  inhibition: 72%

## Cc1ccc(-n2c(C(=O)NC3CC3)cc3cccnc32)cc1Cl
[2]
  CLint scaled: 172 mL/min/kg
[3]
  CLint scaled: 551 mL/min/kg
[4]
  fraction unbound: 0.011
[5]
  fraction unbound: 0.006

## N#Cc1c(F)cc(-n2c(C(=O)NC3CC(F)(F)C3)cc3cccnc32)cc1F
[1]
  inhibition: 47%

## O=C(c1cc2cccnc2n1-c1ccc(Cl)c(F)c1)N1CC(F)C1
[6]
  Activity: Non-Toxic

## COc1c(F)cc(-n2c(C(=O)N3CC(F)(F)C3)cc3cccnc32)cc1F
[1]
  inhibition: 35%

## Cc1ccc(-c2c(C(=O)NC3CC3)sc3nccnc23)cc1Cl
[1]
  inhibition: 46%

## Cc1ccc(-n2c(C(=O)NC3CC3)nc3cccnc32)cc1Cl
[2]
  CLint scaled: 29.6 mL/min/kg
[3]
  CLint scaled: 150 mL/min/kg
[4]
  fraction unbound: 0.085
[5]
  fraction unbound: 0.056

## COc1ncc(-n2c(C(=O)N3CC(F)C3)cc3cccnc32)cc1Cl
[6]
  Activity: Non-Toxic
[2]
  CLint scaled: < 23.1 mL/min/kg
[3]
  CLint scaled: 134 mL/min/kg
[4]
  fraction unbound: 0.049
[5]
  fraction unbound: 0.066

## O=C(c1cc2cccnc2n1-c1ccnc(F)c1)N1CC(F)(F)C1
[1]
  inhibition: 37%

## O=C(c1nc2ccccc2n1-c1ccc(Cl)c(Cl)c1)N1CC(F)C1
[7]
  IC50: 2.4 µM

## COc1ccc(C2CNC(=O)C2)cc1OC1CCCC1 (stereo not drawn) [ROLIPRAM]
[6]
  Activity: Non-Toxic

## COc1ccc(-n2c(C(=O)N3CC(F)C3)cc3cccnc32)cc1
[1]
  inhibition: 67%

## O=C(NC1CC(F)(F)C1)c1cc2cccnc2n1-c1ccc(Cl)c(Cl)c1
[1]
  inhibition: 23%

## COc1ccc(-n2c(C(=O)N3CC(F)C3)cc3cccnc32)cc1F
[1]
  inhibition: 77%

## N#Cc1c(F)cc(-n2c(C(=O)N3CC(F)(F)C3)cc3cccnc32)cc1F
[1]
  inhibition: 41%

## Cc1ccc(-n2c(C(=O)N3CC(F)(F)C3)cc3cccnc32)cc1Cl
[1]
  inhibition: 47%

## O=C(NC1CC1)c1nn2ccccc2c1-c1ccc(Cl)c(Cl)c1
[7]
  IC50: 4.2 µM

## O=C(c1cc2cccnc2n1-c1ccc(Cl)cc1)N1CC(F)(F)C1
[1]
  inhibition: 47%

## COc1c(F)cc(-n2c(C(=O)N3CC(F)C3)cc3cccnc32)cc1F
[6]
  Activity: Non-Toxic
[2]
  CLint scaled: < 23.1 mL/min/kg
[3]
  CLint scaled: < 49.5 mL/min/kg
[4]
  fraction unbound: 0.302
[5]
  fraction unbound: 0.133

## O=C(c1cc2cccnc2n1-c1ccc(Cl)c(F)c1)N1CC(F)(F)C1
[1]
  inhibition: 48%

## N#Cc1c(F)cc(-n2c(C(=O)NC3CC3)cc3cccnc32)cc1F
[2]
  CLint scaled: 31.5 mL/min/kg
[3]
  CLint scaled: < 49.5 mL/min/kg
[4]
  fraction unbound: 0.235
[5]
  fraction unbound: 0.096

## O=C(c1cc2ccccc2n1-c1ccc(Cl)c(Cl)c1)N1CC(F)C1
[1]
  inhibition: 58%

## N#Cc1c(F)cc(-n2c(C(=O)NC3CC(F)C3)cc3cccnc32)cc1F (stereo not drawn)
[1]
  inhibition: 58%

## Cc1ccc(-n2c(C(=O)NC3CC(F)C3)cc3cccnc32)cc1Cl (stereo not drawn)
[7]
  IC50: 9.4 µM
[6]
  Activity: Non-Toxic

## O=C(c1cc2cccnc2n1-c1cc(F)c(Cl)c(F)c1)N1CC(F)(F)C1
[1]
  inhibition: 48%
[6]
  Activity: Non-Toxic
[2]
  CLint scaled: 33.3 mL/min/kg
[3]
  CLint scaled: 104 mL/min/kg
[4]
  fraction unbound: 0.113
[5]
  fraction unbound: 0.051

## O=C(NCc1ccco1)c1cc2cccnc2n1-c1ccc(Cl)c(Cl)c1
[1]
  inhibition: 70%
